Results as given in US12612525B2, “Amine compound, reactive coalescing agent, coating composition, coating layer and related methods” (Agency for Science, Technology and Research, priority 2020, dated 2026).
Read-outs that look alike come from different tables or passages of the source.

Legend:
[1] = Accelerated release study: coalescing agent blended with latex IRS-129, film heated at 110° C., 1H NMR; settings: 2 wt % in IRS-129 latex, dried 2 days at room temperature, powder heated at 110° C. in convection oven
Procedure: At first, ACA4 (2 wt % with respect to latex) was first blended with IRS-129 latex (containing —COOH groups) using dispermat (LC75-E) and the mixture was allowed to dry at room temperature for 2 days. Then, the polymer film was grounded to make powder and then heated at 110° C. in a convection oven, i.e. accelerated evaporation (as illustrated in FIG. 6). Accelerated evaporation was used in this study instead as natural release is time consuming and gas analysis is difficult.
Samples were collected time to time, dissolved in NMR solvent and analyzed by ^1H NMR spectroscopy (with 25 mg of sample, 0.8 mL of CDCl3, and 25 μL of DMF/CDCl3 as internal standard). High boiling commercial coalescing agent, 1-Phenoxy-2-propanol (PPH) (b.p. 243° C.) was used as control.

[2] = commercial coalescing agent used as control; cited from earlier work
[3] = Boiling point determination of ACAs; format: physicochemical
Procedure: Amine based reactive coalescing agents were synthesized via an atom efficient aza-Michael addition reaction of secondary amine to different acrylate/acrylamide monomers such as 2-hydroxyethyl acrylate, 2-hydroxypropyl acrylate, 2-ethylhexyl acrylate, ^nbutyl acrylate, and N-hydroxyethyl acrylamide etc (Table 1 and Scheme 2). The reactions were carried out neat or in water (in some cases, in the presence of 10% ceric ammonium nitrate (CAN) catalyst) at room temperature (RT)-80° C. to yield 80% to 95% conversion. Finally, the ACAs were purified by column chromatography and characterized by ^1H-NMR and ^13C-NMR spectroscopy, and elemental microanalysis (as will be shown in Examples 3.1 to 3.5). Other characterizations include determination of boiling point, volatility (% wt loss when heated at 110±5° C. for 1 hour as per USA EPA 24 method), and plasticizing effect, i.e. reduction of minimum film formation temperature (MFFT) of commercial latices.
Characterization studies were performed on the ACA examples to determine their boiling points and volatility (% wt loss when heated at 110±5° C. for 1 hour as per USA EPA 24 method).

[4] = Stabilization of polymer on heating; settings: IRS-129 heated at 100° C. for 4 days
[5] = Water solubility of ACAs (Table 1); format: physicochemical; settings: in water

b.p. [3] | Water Solubility [5] [%] | SMILES | Presence of coalescing agent in polymer film after heating (1H NMR) [1] | b.p. [2] [°C] | Stabilisation of latex polymer against oxidation/coloration [4]
 |  | CC(O)COc1ccccc1 (centres unmarked) [PPH, 1-Phenoxy-2-propanol, reference compound] | completely evaporated out from the polymer after 2 days of heating | 243 | 
348-355 °C |  | CCOCCOCCOC(=O)CCN(Cc1ccccc1)Cc1ccccc1 [ACA16] |  |  | 
251-254 °C |  | C=C(C)C(=O)OCCOC(=O)CCN(Cc1ccccc1)Cc1ccccc1 [ACA15] |  |  | 
292-297 °C | <0.06 | O=C(CCN(Cc1ccccc1)Cc1ccccc1)OCCO [ACA4] | remain present even after 4 days of heating |  | helps to stabilise or reduce oxidation/coloration of the polymer
